According to patent US10112899B2 (ViiV HEALTHCARE UK LIMITED, priority 2014, dated 2018):

The molecules below were run on HIV in the HTLV-1 transformed cell line MT-4 (assay: organism not typed). Settings: MT4, 96 h, MT-4 cells; luciferase/cell titer glo readout after 96 hours; 10 point dose response.
Format: cell-based
With `Cc1ccc(-c2c(C)c3c(c(C)c2[C@H](OC(C)(C)C)C(=O)O)CN(Cc2cccc4ccccc24)C3)cc1` [Example 13, (S)-2-(tert-Butoxy)-2-(4,7-dimethyl-2-(naphthalen-1-ylmethyl)-6-(p-tolyl)isoindolin-5-yl)acetic acid] the IC50 was 44 nM.
Work on `Cc1c(-c2c(C)c3c(c(C)c2[C@H](OC(C)(C)C)C(=O)O)CN(C(=O)c2ccc(F)c(Cl)c2)C3)cc(F)c2c1CCCO2` (atropisomer, axis not shown; (M)) [Example 171, (S)-2-(tert-butoxy)-2-((M)-2-(3-chloro-4-fluorobenzoyl)-6-(8-fluoro-5-methylchroman-6-yl)-4,7-dimethylisoindolin-5-yl)acetic acid] yielded an IC50 of 2 nM.
In the case of `Cc1ccc(-c2c(C)c3c(c(C)c2[C@H](OC(C)(C)C)C(=O)O)CN(C(=O)c2cccnc2)C3)cc1` [Example 268, (S)-2-(tert-butoxy)-2-(4,7-dimethyl-2-nicotinoyl-6-(p-tolyl)isoindolin-5-yl)acetic acid], the IC50 is reported as 14 nM.
With `Cc1c(-c2c(C)c3c(c(C)c2[C@H](OC(C)(C)C)C(=O)O)CN(C(=O)c2cccc(F)c2)C3)ccc2c1CCCO2` [Example 305, (2S)-2-(tert-butoxy)-2-(2-(3-fluorobenzoyl)-4,7-dimethyl-6-(5-methylchroman-6-yl)isoindolin-5-yl)acetic acid] the IC50 was 2 nM.
`Cc1cccc(F)c1C(=O)N1Cc2c(C)c(-c3cc(F)c4c(c3C)CCCO4)c([C@H](OC(C)(C)C)C(=O)O)c(C)c2C1` (atropisomer, axis not shown; (M)) [Example 197, (S)-2-(tert-butoxy)-2-((M)-6-(8-fluoro-5-methylchroman-6-yl)-2-(2-fluoro-6-methylbenzoyl)-4,7-dimethylisoindolin-5-yl)acetic acid] gave an IC50 of 4 nM.
Molecule `Cc1c(-c2c(C)c3c(c(C)c2[C@H](OC(C)(C)C)C(=O)O)CN(c2nnc(-c4cccc(F)c4)o2)C3)cc(F)c2c1CCCO2` (atropisomer, axis not shown; (M)) [Example 201, (S)-2-(tert-butoxy)-2-((M)-6-(8-fluoro-5-methylchroman-6-yl)-2-(5-(3-fluorophenyl)-1,3,4-oxadiazol-2-yl)-4,7-dimethylisoindolin-5-yl)acetic acid] has an IC50 of 387 nM.
`Cc1ccc(-c2c(C)c3c(c(C)c2[C@H](OC(C)(C)C)C(=O)O)CN(C2CCCC(c4ccccc4)C2)C3)cc1` (stereo partly drawn) [Example 31, (2S)-2-(tert-butoxy)-2-(4,7-dimethyl-2-(3-phenylcyclohexyl)-6-(p-tolyl)isoindolin-5-yl)acetic acid] showed an IC50 of 203 nM.
Work on `COc1c(F)cccc1C(=O)N1Cc2c(C)c(-c3cc(F)c4c(c3C)CCCO4)c([C@H](OC(C)(C)C)C(=O)O)c(C)c2C1` (atropisomer, axis not shown; (M)) [Example 195, (S)-2-(tert-butoxy)-2-((M)-2-(3-fluoro-2-methoxybenzoyl)-6-(8-fluoro-5-methylchroman-6-yl)-4,7-dimethylisoindolin-5-yl)acetic acid] yielded an IC50 of 3 nM.
For `COc1cc(C(=O)N2Cc3c(C)c(-c4ccc(C)cc4)c([C@H](OC(C)(C)C)C(=O)O)c(C)c3C2)ccc1C` [Example 222, (S)-2-(tert-butoxy)-2-(2-(3-methoxy-4-methylbenzoyl)-4,7-dimethyl-6-(p-tolyl)isoindolin-5-yl)acetic acid], the IC50 was 4 nM.
Molecule `Cc1ccc(-c2c(C)c3c(c(C)c2[C@H](OC(C)(C)C)C(=O)O)CN(C(=O)N2CCCOCC2)C3)cc1` [Example 76, (2S)-2-(tert-butoxy)-2-[4,7-dimethyl-6-(4-methylphenyl)-2-(1,4-oxazepane-4-carbonyl)-2,3-dihydro-1H-isoindol-5-yl]acetic acid] has an IC50 of 12 nM.
With `COc1cncc(C(=O)N2Cc3c(C)c(-c4cc(F)c5c(c4C)CCCO5)c([C@H](OC(C)(C)C)C(=O)O)c(C)c3C2)c1` (atropisomer, axis not shown; (M)) [Example 143, (S)-2-(tert-butoxy)-2-((M)-6-(8-fluoro-5-methylchroman-6-yl)-2-(5-methoxynicotinoyl)-4,7-dimethylisoindolin-5-yl)acetic acid] the IC50 was 4 nM.
Work on `Cc1c(-c2c(C)c3c(c(C)c2[C@H](OC(C)(C)C)C(=O)O)CN(C(=O)c2ccc4c(cnn4C)c2)C3)cc(F)c2c1CCCO2` (atropisomer, axis not shown; (M)) [Example 154, (S)-2-(tert-butoxy)-2-((M)-6-(8-fluoro-5-methylchroman-6-yl)-4,7-dimethyl-2-(1-methyl-1H-indazole-5-carbonyl)isoindolin-5-yl)acetic acid] yielded an IC50 of 8 nM.
`Cc1c(-c2c(C)c3c(c(C)c2[C@H](OC(C)(C)C)C(=O)O)CN(Cc2cccc(F)c2)C3)cc(F)c2c1CCCO2` (atropisomer, axis not shown; (M)) [Example 8, (2S)(M)-2-(tert-Butoxy)-2-(-6-(8-fluoro-5-methylchroman-6-yl)-2-(3-fluorobenzyl)-4,7-dimethylisoindolin-5-yl)acetic acid] gave an IC50 of 5 nM.
`Cc1ccc(-c2c(C)c3c(c(C)c2[C@H](OC(C)(C)C)C(=O)O)CN(Cc2cccc(F)c2F)C3)cc1` [Example 3, (S)-2-(tert-butoxy)-2-(2-(2,3-difluorobenzyl)-4,7-dimethyl-6-(p-tolyl)isoindolin-5-yl)acetic acid] showed an IC50 of 40 nM.
In the case of `Cc1ccc(-c2c(C)c3c(c(C)c2[C@H](OC(C)(C)C)C(=O)O)CN(C(=O)c2cc(F)c(F)c(F)c2)C3)cc1` [Example 279, (S)-2-(tert-butoxy)-2-(4,7-dimethyl-6-(p-tolyl)-2-(3,4,5-trifluorobenzoyl)isoindolin-5-yl)acetic acid], the IC50 is reported as 4 nM.
`COc1ccc(C(=O)N2Cc3c(C)c(-c4cc(F)c5c(c4C)CCCO5)c([C@H](OC(C)(C)C)C(=O)O)c(C)c3C2)cc1F` (atropisomer, axis not shown; (M)) [Example 187, (S)-2-(tert-butoxy)-2-((M)-2-(3-fluoro-4-methoxybenzoyl)-6-(8-fluoro-5-methylchroman-6-yl)-4,7-dimethylisoindolin-5-yl)acetic acid] gave an IC50 of 3 nM.
`COc1cccc(C(=O)N2Cc3c(C)c(-c4ccc(C)cc4)c([C@H](OC(C)(C)C)C(=O)O)c(C)c3C2)c1F` [Example 253, (S)-2-(tert-butoxy)-2-(2-(2-fluoro-3-methoxybenzoyl)-4,7-dimethyl-6-(p-tolyl)isoindolin-5-yl)acetic acid] showed an IC50 of 12 nM.
`COc1ccc(C)c(C(=O)N2Cc3c(C)c(-c4cc(F)c5c(c4C)CCCO5)c([C@H](OC(C)(C)C)C(=O)O)c(C)c3C2)c1` (atropisomer, axis not shown; (M)) [Example 160, (S)-2-(tert-butoxy)-2-(6-((M)-8-fluoro-5-methylchroman-6-yl)-2-(5-methoxy-2-methylbenzoyl)-4,7-dimethylisoindolin-5-yl)acetic acid] showed an IC50 of 4 nM.
`Cc1ccc(-c2c(C)c3c(c(C)c2[C@H](OC(C)(C)C)C(=O)O)CN(Cc2cccc(F)c2C)C3)cc1` [Example 47, (2S)-2-(tert-butoxy)-2-{2-[(3-fluoro-2-methylphenyl)methyl]-4,7-dimethyl-6-(4-methylphenyl)-2,3-dihydro-1H-isoindol-5-yl}acetic acid] showed an IC50 of 44 nM.
`Cc1ccc(-c2c(C)c3c(c(C)c2[C@H](OC(C)(C)C)C(=O)O)CN(C(=O)c2ccc(F)c(F)c2)C3)cc1` [Example 261, (S)-2-(tert-butoxy)-2-(2-(3,4-difluorobenzol)-4,7-dimethyl-6-(p-tolyl)isoindolin-5-yl)acetic acid] showed an IC50 of 4 nM.
Work on `COc1ccc(C)c(C(=O)N2Cc3c(C)c(-c4ccc(C)cc4)c([C@H](OC(C)(C)C)C(=O)O)c(C)c3C2)c1` [Example 249, (S)-2-(tert-butoxy)-2-(2-(5-methoxy-2-methylbenzoyl)-4,7-dimethyl-6-(p-tolyl)isoindolin-5-yl)acetic acid] yielded an IC50 of 5 nM.
In the case of `COc1cccc(CN2Cc3c(C)c(-c4ccc(C)cc4)c([C@H](OC(C)(C)C)C(=O)O)c(C)c3C2)c1` [Example 24, (S)-2-(tert-butoxy)-2-(2-(3-methoxybenzyl)-4,7-dimethyl-6-(p-tolyl)isoindolin-5-yl)acetic acid], the IC50 is reported as 12 nM.
`Cc1ccc(-c2c(C)c3c(c(C)c2[C@H](OC(C)(C)C)C(=O)O)CN(C(=O)N2CCCCCC2)C3)cc1` [Example 60, (2S)-2-[2-(azepane-1-carbonyl)-4,7-dimethyl-6-(4-methylphenyl)-2,3-dihydro-1H-isoindol-5-yl]-2-(tert-butoxy)acetic acid] was tested, and the IC50 was 14 nM.
`Cc1c(-c2c(C)c3c(c(C)c2[C@H](OC(C)(C)C)C(=O)O)CN(C(=O)c2cc(F)c(F)c(Cl)c2)C3)cc(F)c2c1CCCO2` (atropisomer, axis not shown; (M)) [Example 194, (S)-2-(tert-butoxy)-2-((M)-2-(3-chloro-4,5-difluorobenzoyl)-6-(8-fluoro-5-methylchroman-6-yl)-4,7-dimethylisoindolin-5-yl)acetic acid] gave an IC50 of 11 nM.
`Cc1ccc(-c2c(C)c3c(c(C)c2[C@H](OC(C)(C)C)C(=O)O)CN(C(=O)c2cc(F)c(F)c(Cl)c2)C3)cc1` [Example 280, (S)-2-(tert-butoxy)-2-(2-(3-chloro-4,5-difluorobenzoyl)-4,7-dimethyl-6-(p-tolyl)isoindolin-5-yl)acetic acid] was tested, and the IC50 was 8 nM.
Work on `Cc1ccc(-c2c(C)c3c(c(C)c2[C@H](OC(C)(C)C)C(=O)O)CN(C(=O)c2cc(F)cc(F)c2)C3)cc1` [Example 119, (S)-2-(tert-butoxy)-2-(2-(3,5-difluorobenzoyl)-4,7-dimethyl-6-(p-tolyl)isoindolin-5-yl)acetic acid] yielded an IC50 of 3 nM.
Work on `Cc1ccc(-c2c(C)c3c(c(C)c2[C@H](OC(C)(C)C)C(=O)O)CN(CC2CCOCC2)C3)cc1` [Example 12, (S)-2-(tert-butoxy)-2-(4,7-dimethyl-2-((tetrahydro-2H-pyran-4-yl)methyl)-6-(p-tolyl)isoindolin-5-yl)acetic acid] yielded an IC50 of 820 nM.
`Cc1ccc(-c2c(C)c3c(c(C)c2[C@H](OC(C)(C)C)C(=O)O)CN(CCc2ccccc2)C3)cc1` [Example 39, (2S)-2-(tert-butoxy)-2-[4,7-dimethyl-6-(4-methylphenyl)-2-(2-phenylethyl)-2,3-dihydro-1H-isoindol-5-yl]acetic acid] showed an IC50 of 872 nM.
